From US20260294906A1, “TREATING PSORIASIS USING A SMALL MOLECULE INHIBITOR OF TUMOR NECROSIS FACTOR ALPHA” (SANOFI, priority 2023, published 2026) come the findings set out here.

Common to all, as to format: in vivo, human
In one series the test system is IL-17A. In words: Serum levels of biomarker IL-17A (single molecule counting sandwich immunoassay). On the procedure:
(§1) The primary objective of the study was to assess the safety, tolerability, and clinical efficacy of Compound 1 at 200 mg BID via oral administration. Also evaluated was the clinical effect of Compound 1 as compared to placebo on the percent change in PASI and TLS scores from baseline to week 2 and week 4. The percent change in PASI score from baseline to week 4 was determined. TLS score was also assessed over the same time period. Also assessed was the effect of Compound 1 on biomarkers of psoriasis. Blood samples collected at predetermined time points were processed to quantify serum levels of biomarkers, including interleukin (IL)-17A, IL-17F, and IL-22 by high sensitivity methods. IL-17A, IL-17F and IL-22 are the main cytokines released by Th17 cells. Plasma levels of Compound 1 were measured to assess pharmacokinetics in the study population.
(§2) Two study interventions were used, Compound 1 and placebo. The Compound 1 intervention comprised 4× tablets of Compound 1 50 mg twice daily, i.e. 200 mg BID, for 4 weeks. The placebo intervention was 4× tablets of placebo twice daily for 4 weeks. Tablets were administered orally.
(§3) Blood samples were processed for analysis of IL-17A, IL-17F and IL-22 in serum samples by high sensitivity methods. Samples were collected according to the schedule of activity described above.
(§4) As indicated above, peripheral blood samples collected at predetermined time points were processed to quantify serum levels of biomarkers of psoriasis including IL-17A, IL-17F, and IL-22. Levels of IL-17A and IL-17F were quantified using a single molecule counting sandwich immunoassay (SMCxPro™, Millipore—see also Hwang et al., Methods (2019) 158:69-76). Levels of IL-22 were quantified using a single-molecule array ELISA (SIMOA™, Myriad RBM—see also Rissin et al., Anal Chem (2011) 83(6):2279-2285). Statistical analysis was based on geometric mean ratio to baseline; a two-sample t-test at significance alpha level of 5% was used for calculation of the p-values.

The subject of a further series is IL-22. The series is described as follows: Serum levels of biomarker IL-22 (single-molecule array ELISA). On the procedure:
as §1, §2, §3, §4

For series [1], the system named is participants with mild to moderate psoriasis. In words: Liver function laboratory tests in the clinical study. As to the method:
as §2
Laboratory tests (from at least 10 hours under fasting conditions for blood samples) included: • Hematology: red blood cell count, hematocrit, hemoglobin, white blood cell count with differential count (neutrophils, eosinophils, basophils, monocytes, and lymphocytes), platelets. • Biochemistry: • Plasma/serum electrolytes: sodium, potassium, chloride, calcium, • Liver function: AST, ALT, alkaline phosphatase, GGT, total and conjugated bilirubin, • Renal function: urea, creatinine, • Metabolism: glucose, albumin, total proteins, total cholesterol, triglycerides, • Potential muscle toxicity: CK, • International normalized ratio (INR), and activated partial thromboplastin time (aPTT), • C-reactive protein; the CRP levels were evaluated by an independent investigator who is not involved in the study to protect the blinding of the study. CRP values were provided by the independent investigator to the investigator in case of medical need. • Procalcitonin at screening, week 2 and EOS. • QuantiFERON-TB Gold (QFT) test.
For AESI in this study, the Sponsor was to be informed immediately (i.e., within 24 hours), as per SAE notification guidelines, even if a seriousness criterion was not met, using the corresponding screens in the eCRF. • ALT increased >3×ULN. • QT prolongation (QTcF≥500 milli seconds [ms]) and/or a delta QTc change from baseline>60 ms (12-lead ECG). In the event of prolongation of QTc interval (automatic measurement)≥500 ms, confirmed by a manual reading by the Investigator or a physician delegated by the Investigator using the Fridericia formula for correcting QT, the participant was placed under supervision in a specialized setting. Investigational medicinal product administration was stopped, and appropriate blood samples collected. Subsequent ECG monitoring of the participant was then performed on a regular and clinically responsible basis until the QTc interval returned to a safe value as determined by the Investigator in agreement with the Sponsor. • Photosensitivity (Grade 2 and above AE due to sun exposure). • Pregnancy. • Symptomatic overdose. • An overdose (accidental or intentional) with the IMP is an event suspected by the Investigator or spontaneously notified by the participant (not based on systematic pills count) and defined as at least twice the intended dose within the intended therapeutic interval, adjusted according to the tested drug.
Once the participant was included in the clinical trial, the following laboratory abnormalities were monitored, documented, and managed: • Neutropenia, characterized as neutrophils <1500/mm^3 or according to ethnic group (recorded as an AE only if at least 1 of the criteria listed above was met) • Thrombocytopenia, characterized as platelets <100,000/mm^3 confirmed with or without bleeding (recorded as an AE only if at least 1 of the criteria listed above was met) • Increase of ALT. Patients were monitored where 3 ULN<ALT≤5 ULN and total bilirubin was ≤2 ULN. […]

Another series concerns IL-17F. The series is described as follows: Serum levels of biomarker IL-17F (single molecule counting sandwich immunoassay). On the procedure: as §1, §2, §3, §4

“Also recorded” adds a separate entry of the source.

Regarding `CN1C(=O)c2cccc(OC(F)F)c2[C@H]2C[C@@H]1c1nc3ccc(-c4cnc(C5(N)CCC5)nc4)cc3n12` [Compound 1, (7R,14R)-11-[2-(1-aminocyclobutyl)pyrimidin-5-yl]-1-(difluoromethoxy)-6-methyl-6,7-dihydro-7,14-methanobenzimidazo[1,2-b][2,5]benzodiazocin-5(14H)-one], the “Serum level of IL-17A (in words)” value with IL-17A (after treatment for 4 weeks) is given as “substantially decreased”. The “Serum level of IL-17A, geometric mean (geometric SE)” value with IL-17A (baseline (before treatment)) is 0.62 (1.15) pg/mL; with IL-17A (week 2, 200 mg BID) it was 0.56 (1.13) pg/mL; in the series with IL-17A (week 4, 200 mg BID), 0.45 (1.14) pg/mL. Besides, the “Serum level of IL-22 (in words)” value in the series with IL-22 (after treatment for 4 weeks) was “substantially decreased”. The “Serum level of IL-22, geometric mean (geometric SE)” value is on record as 4.13 (1.19) pg/mL in the series on IL-22 (baseline (before treatment)); 2.86 (1.18) pg/mL with IL-22 (week 2, 200 mg BID); 2.49 (1.15) pg/mL with IL-22 (week 4, 200 mg BID). Also, in series [1] (200 mg BID), the “potentially clinically significant abnormality (PCSA) for ALT increase” value was “no PCSA for ALT increase”. Also, the “total bilirubin, first participant” value in series [1] (200 mg BID, Day 8, baseline 1.5 ULN) was found to be 1.67 ULN. The “total bilirubin, second participant” value in series [1] (200 mg BID, day not given, baseline 1.3 ULN) was 1.56 ULN. In series [1] (200 mg BID, one single occasion), the “Number of participants with total bilirubin increased >1.5 ULN” value is on record as “two”. For the same compound, the “liver function tests / impact on liver parameters (in words)” value in series [1] (4-week clinical trial) is “no signal for risks on liver function tests; also recorded: neither was any significant impact on cardiac parameters (e.g., QTcF interval) or liver parameters (e.g., AST, ALT, or bilirubin levels) observed”. Further, the “Serum level of IL-17F (in words)” value with IL-17F (after treatment for 4 weeks) is “substantially decreased”. The “Serum level of IL-17F, geometric mean (geometric SE)” value in the series with IL-17F (baseline (before treatment)) is recorded as 2.63 (1.19) pg/mL; with IL-17F (week 2, 200 mg BID), 1.65 (1.21) pg/mL; with IL-17F (week 4, 200 mg BID), 1.35 (1.21) pg/mL.
